# Assay results from patent US4368194A, “Pharmacologically active amine boranes” (The United States of America as represented by the …, priority 1981, dated 1983).
# Key:
# Acid phosphatase [1] = test: Lysosomal free acid phosphatase activity, liver homogenate; format: biochemical, rats; conditions: 5 μmoles, in vitro; 20 min
# Procedure, shortened: (§1)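 Percent free enzyme activity was calculated against total activity released by 0.02% detergent. Drug (5 μmoles, 1% CMC) was incubated 20 min with rat liver homogenate (sucrose/EDTA, pH 7.2) at pH 5.0 acetate. Substrates: β-glycerol phosphate for phosphatase (phosphate read-out), azocasein for cathepsin (366 nm).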
# Male Sprague Dawley rats = test: Chronic adjuvant arthritic screen; format: in vivo
# Protocol: Male Sprague Dawley rats (about 160 g) were injected at the base of the tail with 0.2 ml of solution of killed and dried Mycobacterium butyricum and digitonin in mineral oil (see Waksman et al., J. Immunol., 85, 403 1960). Test drugs were administered intraperitoneally commencing on day 3 through day 20 at 2.5 mg/kg/day. Animals were sacrificed on day 21, and the feet were excised and weighed.
# Cathepsin [2] = test: Lysosomal free cathepsin activity, liver homogenate; format: biochemical, rats; conditions: 5 μmoles
# Procedure, shortened: as §1
# [3] = tested on: carrageenan induced edema in mouse foot pads; test: Anti-inflammatory screen (carrageenan induced foot edema); format: in vivo, mice
# Procedure, shortened: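 Male CF1 mice (~30 g) given 10 mg/kg i.p. in 0.05% polysorbate 80-water, 3 hr and 30 min before 0.05 ml 2% carrageenan injected into the right hind plantar surface, with saline in the left foot as baseline. Feet excised at the ankle after 3 hr and weight increase measured.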
# Sprague Dawley rats [4] = test: Anti-pyretic screen; format: in vivo
# Protocol: Sprague Dawley rats (about 200 g) were administered 2 ml of a 44% solution of Baker's yeast subcutaneously (see Roszkowski et al., supra) 18 hr prior to the injection of drugs at 2.5 or 5 mg/kg intraperitoneally resulting in an elevation of 3.46° F. Alternatively, rats were administered 0.25 mg killed and dried Mycobacterium butyricum (Difco) (see Randall et al., Arch int Pharmacodyn et De Ther, 220, 94 1976) subcutaneously prior to the administration of drugs. Rectal temperatures were taken immediately prior to and 2, 4, and 6 hr after drug administration.
# liver mitochondria [5] = test: Oxidative phosphorylation, succinate as substrate; format: biochemical, rats; conditions: 5 μmoles
# Procedure, shortened: (§2)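 Basal and ADP-stimulated respiration of 10% liver homogenates, with succinate (90 μmoles) or α-ketoglutarate (60 μmoles) as substrate, in sucrose/KCl/K2HPO4 medium. Test compounds at 5 μmoles in 1% CMC in 1.8 ml total. Rate given as μl O2 consumed/hr/mg wet liver weight.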
# Cathepsin [6] = test: Lysosomal free cathepsin activity, PMNs; format: cell-based; conditions: 5 μmoles, in vitro; 60 min
# Procedure, shortened: (§3)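 Glycogen-elicited peritoneal PMNs, or liver homogenate, incubated with 5 μmoles test drug in 1% CMC for 60 or 20 min at pH 5.0. Acid phosphatase: 0.1 M β-glycerol phosphate, inorganic phosphate read; cathepsin: 2% azocasein, acid-soluble peptides at 366 nm. Free activity expressed as percent of detergent-released total.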
# cAMP levels in PMNs = test: Cyclic-3',5'-adenosine monophosphate levels (cAMP) in PMNs; format: cell-based; conditions: 1 h
# Procedure, shortened: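 Glycogen-elicited peritoneal neutrophils in MEM with 10% FCS, pH 7.4, exposed to test drugs at 5μ moles for 1 hr at 37° C; stopped with 6% trichloroacetic acid. cAMP measured by radioimmunoassay with 3H-cAMP tracer, expressed as p mole/10^7 PMNs.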
# [7] = biological target: T1, prostaglandin synthetase from beef seminal vesicle (Bos taurus, UniProt O62664); test: Prostaglandin synthetase activity; format: biochemical; conditions: 10^-6 M
# T1 construct: purchased; host or cells: beef seminal vesicle
# T1 sequence (O62664 25-600): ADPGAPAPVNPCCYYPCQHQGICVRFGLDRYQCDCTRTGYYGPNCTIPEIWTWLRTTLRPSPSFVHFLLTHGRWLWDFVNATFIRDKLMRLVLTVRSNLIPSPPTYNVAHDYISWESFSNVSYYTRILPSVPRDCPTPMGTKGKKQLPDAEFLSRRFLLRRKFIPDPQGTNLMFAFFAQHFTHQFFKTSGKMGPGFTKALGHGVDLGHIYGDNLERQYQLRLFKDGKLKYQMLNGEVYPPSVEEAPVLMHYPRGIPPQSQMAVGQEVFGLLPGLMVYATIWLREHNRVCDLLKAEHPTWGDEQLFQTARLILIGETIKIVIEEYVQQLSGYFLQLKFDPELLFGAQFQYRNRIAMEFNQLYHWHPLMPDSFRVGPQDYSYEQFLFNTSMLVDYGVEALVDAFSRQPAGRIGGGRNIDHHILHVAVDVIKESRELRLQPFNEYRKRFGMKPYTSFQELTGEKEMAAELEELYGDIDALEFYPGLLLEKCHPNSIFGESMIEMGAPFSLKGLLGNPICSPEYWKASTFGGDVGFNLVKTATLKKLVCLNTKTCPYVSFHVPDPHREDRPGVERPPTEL
# Protocol: After 1 hr at 37° C. the reaction was stopped with 1 N HCl and extracted with ethyl ether and evaporated. […] The plates were dried and developed in iodine vapor and with the use of prostaglandin standards the appropriate areas were scraped and counted for ^3 H content. Indometacin was used as a standard at 10^-4 M concentration. Test drugs were used at 10^-6 M.
# CF1 male mice = test: Writhing reflex (acetic acid); format: in vivo
# Procedure, shortened: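 CF1 male mice were dosed with test drug at 20 mg/kg i.p. 20 min before 0.5 ml of 0.6% acetic acid. Abdominal stretches with hind-limb extension were counted over 10 min, starting 5 min after acid.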
# liver mitochondria [8] = test: Oxidative phosphorylation, α-ketoglutarate as substrate; format: biochemical, rats; conditions: 5 μmoles
# Procedure, shortened: as §2
# Sprague Dawley rats [9] = test: Red and white blood cell counts after 3 weeks dosing; format: in vivo; conditions: dosing for three weeks intraperitoneally, rats
# Source text: Hematocrits were also obtained.
# Acid phosphatase [10] = test: Lysosomal free acid phosphatase activity, PMNs; format: cell-based; conditions: 5 μmoles
# Procedure, shortened: as §3
smiles,measurement,setting,value
"C[N+](C)(C)[BH2-]C#N [Compound V, trimethylamine-cyanoborane]","Liver % Free Acid Phosphatase Activity, pH5",Acid phosphatase [1],69 ± 4 % Control
same,inhibition in the rat induced arthritic screen,Male Sprague Dawley rats; 1.25 mg/kg/day intraperitoneally,75%
same,inhibition in the rat induced arthritic screen,Male Sprague Dawley rats; 5 mg/kg/day intraperitoneally,100%
same,inhibition in the rat induced arthritic screen,Male Sprague Dawley rats; 10 mg/kg/day intraperitoneally,100%
same,inhibition of free proteolytic cathepsin activity of liver,Cathepsin [2],100%
same,"Liver % Free Cathepsin Activity, pH5","Cathepsin [2]; in vitro, 20 min",0 ± 2 % Control
same,Anti-inflammatory Screen,"[3]; 10 mg/kg × 2 intraperitoneally, mice",42 % Control
same,inhibition of the carrageenan induced edema in mouse foot pads,[3]; text summary of Table II,at least 50%
same,inhibition of elevated body temperature,Sprague Dawley rats [4]; 5 mg/kg,no inhibition
same,inhibition of elevated body temperature,Sprague Dawley rats [4]; 10 mg/kg,no inhibition
same,Oxidative Phosphorylation Succinate State 3,liver mitochondria [5]; ADP stimulated respiration,51 ± 20 % Control
same,Oxidative Phosphorylation Succinate State 4,liver mitochondria [5]; basal respiration,133 ± 20 % Control
same,"PMNs % Free Cathespin Activity, pH5",Cathepsin [6],4 ± 2 % Control
same,activity at 5 µmol,"cAMP levels in PMNs; pH 7.4, read-out: PMNs cAMP Level",245%
same,activation at 5 µmol,cAMP levels in PMNs; read-out: increase of cyclic adenosine monophosphate levels in PMNs,145%
same,inhibition at 1 µM,[7]; read-out: inhibition of prostaglandin synthesis,> 30%
same,activity at 1 µM,"[7]; 1 h, read-out: Prostaglandin Synthesis",59 ± 6%
same,Writhing Reflex,"CF1 male mice; 20 mg/kg intraperitoneally, mice",18 % Control
same,inhibition of the writhing reflex,CF1 male mice; text summary of Table II,80%
same,both states 3 and 4 respiration with α-ketoglutarate,liver mitochondria [8],inhibited
same,Oxidative Phosphorylation α Ketoglutarate State 3,liver mitochondria [8]; ADP stimulated respiration,42 ± 9 % Control
same,Oxidative Phosphorylation α Ketoglutarate State 4,liver mitochondria [8]; basal respiration,85 ± 21 % Control
same,alteration of the red blood or white blood cell count/cu mm,Sprague Dawley rats [9],no alteration
same,inhibition of free acid phosphatase activity in PMNs,Acid phosphatase [10],65%
same,"PMNs % Free Acid Phosphatase Activity, pH5","Acid phosphatase [10]; in vitro, 60 min",35 ± 5 % Control
